Values quoted from earlier work, collected in US6831088B2, “3-heterocyclypropanohydroxamic acid PCP inhibitors” (Pfizer Inc., priority 2001, dated 2004).
Read-outs that look alike come from different tables or passages of the source.

Tested on: PCP

For `[Cl-].[Na+]` [NaCl], the “activity of PCP relative to that observed with the standard assay concentration of 0.15M” value (0.2M NaCl) is given as 66%, the “activity of PCP relative to that observed with the standard assay concentration of 0.15M” value (0.3M NaCl) is given as 38% and the “activity of PCP relative to that observed with the standard assay concentration of 0.15M” value (0.5M NaCl) is given as 25%.
